Data reported in patent US20230203029A1 (priority 2020, published 2023).

How the values were obtained:
[1] = target: T1, Ba/F3 Pro B-cell line expressing BCR-human AXL kinase domain fusion protein (Homo sapiens, UniProt P30530); experiment: Assay 5 Ba/F3 cell survival assay, BCR-Axl; format: cell-based; conditions: read-out: BCR-Axl Ba/F3 IC50, 48 h, CellTiter-Glo
T1 construct: P11274 (Breakpoint cluster region protein)
T1 sequence (P30530 536-807 limits assumed): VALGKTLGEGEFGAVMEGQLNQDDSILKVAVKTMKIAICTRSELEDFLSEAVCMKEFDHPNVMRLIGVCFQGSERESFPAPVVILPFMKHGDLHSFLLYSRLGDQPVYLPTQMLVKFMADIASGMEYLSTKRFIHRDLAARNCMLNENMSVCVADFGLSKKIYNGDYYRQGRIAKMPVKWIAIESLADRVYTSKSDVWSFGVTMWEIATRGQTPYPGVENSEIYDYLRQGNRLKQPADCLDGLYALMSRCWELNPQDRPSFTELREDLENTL
Description: (§1) Assay 5—Ba/F3 Cell Survival Assays.
(§2) The inhibitory potencies of compounds were assessed in a Ba/F3 cell survival assay, using the Ba/F3 Pro B-cell line, recombinantly expressing a BCR-human AXL kinase domain fusion protein (pACD320/AXL, Advanced Cellular Dynamics Inc), TEL-human MERTK fusion domain (pACD1000/MERTK, Advanced Cellular Dynamics Inc), TEL-human Tyro3 fusion domain (pACD1000/TYRO3, Advanced Cellular Dynamics Inc), or control TEL-none (ACD320, Advanced Cellular Dynamics Inc) BRC-none constructs (ACD1000, Advanced Cellular Dynamics Inc). 10 ng/mL recombinant murine IL3 (R&D, 403-ML-010) was included in the media when propagating negative control TEL-none or BCR-none lines only. […] The final assay DMSO concentration was 0.25%. Compound incubations were conducted for 48 h at 37° C./5% CO2, after which cell plate was equilibrated at room temperature for 20 minutes prior to assessing viability. 15 μl of Promega CellTiter-Glo reagent (G7572) was added to each well for 2 min on an orbital shaker to induce cell lysis.
(§3) The plate was then equilibrated for 5 min at room temperature and luminescence read on a BMG Pherastar FSX using the LUM plus optic module. […] Competition curves were then fit to a 4 parameter logistic equation including a variable slope factor to determine the IC50 (compound concentration causing a half-maximal inhibition of cell survival).

[2] = target: T2, Ba/F3 Pro B-cell line expressing TEL-human Tyro3 fusion domain (Homo sapiens, UniProt Q06418); format: cell-based; conditions: cell survival, 48 h, CellTiter-Glo
T2 sequence (Q06418 518-790 limits assumed): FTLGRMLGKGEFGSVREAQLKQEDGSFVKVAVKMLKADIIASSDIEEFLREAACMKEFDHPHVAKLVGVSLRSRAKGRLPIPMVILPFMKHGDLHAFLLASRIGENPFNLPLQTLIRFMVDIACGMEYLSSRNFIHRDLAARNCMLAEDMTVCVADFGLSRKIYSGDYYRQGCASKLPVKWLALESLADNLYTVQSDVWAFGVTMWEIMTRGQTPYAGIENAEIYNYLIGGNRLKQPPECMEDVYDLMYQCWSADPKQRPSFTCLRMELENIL
Description: as §1
as §2, with “only. Cells were maintained in RMPI 1640 (Corning 15-040-CV) culture media containing 10% heat inactivated semi-synthetic FBS (RMBIO FGR-BBT), 2 mM L-Glutamine (Sigma, G7513), 100 IU/mL Penicillin-[…] Streptomycin (Sigma, P4333), and 500 ng/mL Puromycin (Sigma, P8833). Experiments were performed in 50 μl growth media, including the test compounds of interest, and dispensing 5000 cells/well in logarithmic-phase growth into a 384 well white Optiplate (Perkin Elmer 6007299).” for “only.”
The plate was then equilibrated for 5 min at room temperature and luminescence read on a BMG Pherastar FSX using the LUM plus optic module. Data were normalised to measurements in the absence of competing compound (0% inhibition). Competition curves were then fit to a 4 parameter logistic equation including a variable slope factor to determine the IC50 (compound concentration causing a half-maximal inhibition of cell survival).

[3] = target: T3, human MERTK cytoplasmic domain (Homo sapiens, UniProt Q12866); experiment: biochemical; conditions: 30 uM ATP; read-out: Assay 1a Mer IC50 30 uM ATP
T3 construct: human MERTK cytoplasmic domain (Carna Biosciences 08-108); purchased Carna Biosciences 08-108
T3 sequence (Q12866 527-999): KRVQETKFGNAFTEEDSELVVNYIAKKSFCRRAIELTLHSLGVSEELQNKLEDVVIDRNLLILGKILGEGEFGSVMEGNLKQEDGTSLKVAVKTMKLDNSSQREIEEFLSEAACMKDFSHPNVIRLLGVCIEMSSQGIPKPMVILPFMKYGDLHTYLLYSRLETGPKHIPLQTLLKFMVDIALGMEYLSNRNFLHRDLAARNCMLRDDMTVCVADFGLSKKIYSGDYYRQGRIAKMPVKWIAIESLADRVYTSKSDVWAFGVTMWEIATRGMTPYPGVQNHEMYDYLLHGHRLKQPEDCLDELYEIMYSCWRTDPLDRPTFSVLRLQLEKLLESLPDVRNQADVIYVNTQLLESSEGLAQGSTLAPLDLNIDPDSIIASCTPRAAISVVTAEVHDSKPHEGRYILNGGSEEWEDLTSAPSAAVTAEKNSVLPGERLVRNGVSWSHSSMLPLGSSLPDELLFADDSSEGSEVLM
Description: Assay 1a—MERTK HTRF KinEASE-TK Assay
The enzymatic reaction was carried out for 30 min at room temperature. 10 μL TK Antibody-Cryptate/Streptavidin-XL665 (Cisbio 610SAXLG) was then added for 60 min, including EDTA containing detection buffer (Cisbio 62SDBRDF) to stop the reaction.

[4] = target: T4, Ba/F3 Pro B-cell line expressing TEL-human MERTK fusion domain (Homo sapiens, UniProt Q12866); format: cell-based; conditions: cell survival, 48 h, CellTiter-Glo; read-out: TEL-MERTK Ba/F3 IC50
T4 sequence (Q12866 587-858 limits assumed): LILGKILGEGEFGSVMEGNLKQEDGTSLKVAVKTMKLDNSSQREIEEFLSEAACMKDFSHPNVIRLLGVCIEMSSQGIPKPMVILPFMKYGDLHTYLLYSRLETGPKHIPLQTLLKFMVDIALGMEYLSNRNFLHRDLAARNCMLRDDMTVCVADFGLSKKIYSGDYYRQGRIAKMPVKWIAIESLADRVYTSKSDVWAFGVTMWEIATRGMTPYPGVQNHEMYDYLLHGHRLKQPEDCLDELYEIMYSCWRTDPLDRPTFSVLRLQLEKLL
Description: as §1, §2, §3

[5] = target: T5, human AXL cytoplasmic domain (Homo sapiens, UniProt P30530); experiment: Assay 1b AXL HTRF KinEASE-TK assay; format: biochemical
T5 construct: human AXL cytoplasmic domain (Thermo Fisher A31515); purchased Thermo Fisher A31515
T5 sequence (P30530 473-894 limits assumed): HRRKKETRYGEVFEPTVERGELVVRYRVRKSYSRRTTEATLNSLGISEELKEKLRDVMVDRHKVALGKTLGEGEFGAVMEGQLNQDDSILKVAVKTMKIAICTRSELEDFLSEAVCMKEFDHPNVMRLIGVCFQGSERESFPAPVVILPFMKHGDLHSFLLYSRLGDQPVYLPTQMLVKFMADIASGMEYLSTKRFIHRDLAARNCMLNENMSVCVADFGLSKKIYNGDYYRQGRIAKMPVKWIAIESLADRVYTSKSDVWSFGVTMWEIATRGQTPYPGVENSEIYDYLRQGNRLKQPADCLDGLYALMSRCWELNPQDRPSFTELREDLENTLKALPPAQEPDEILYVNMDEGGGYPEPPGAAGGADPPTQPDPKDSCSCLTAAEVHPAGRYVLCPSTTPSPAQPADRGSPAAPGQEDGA
Description: Assay 1b—AXL HTRF KinEASE-TK Assay
Compound inhibition of human AXL cytoplasmic domain (Thermo Fisher A31515) enzymatic activity was tested via the HTRF KinEASE-tyrosine kinase (TK) kit (Cisbio 62TK0PEC). Experiments were performed in 20 μl enzymatic buffer (Cisbio 62EZBFDD) supplemented with 5 mM MgCl2, 1 mM MnCl2, 1 mM DTT, 50 nM SEB (Cisbio, 61SEBALB), with 5 nM of AXL and the test compounds of interest. […] The enzymatic reaction was carried out for 30 min at room temperature. 10 μL TK Antibody-Cryptate/Streptavidin-XL665 (Cisbio 610SAXLG) was then added for 60 min, including EDTA containing detection buffer (Cisbio 62SDBRDF) to stop the reaction. The plate was read on a BMG Pherastar FSX using a HTRF 337/620/665 optical module to excite the terbium donor at 337 nm, and record donor emission at 620 nm and acceptor fluorophore emission at 665 nm. From this the FRET ratio (acceptor 665 nm/donor 620 nm) for each data point was calculated. […] Competition curves were then fit to a 4 parameter logistic equation including a variable slope factor to determine the IC50 (compound concentration that inhibits 50% of AXL activity).

Row | SMILES | IC50 [3] | IC50 [5] | IC50 [1] | IC50 [2] | IC50 [4]
1 | CN1CCC(NC(=O)c2cc3c(Oc4ccc(NC(=O)c5cccn(-c6ccc(F)cc6)c5=O)cc4)ccnc3cn2)CC1 [Example 8.1, 4-[4-[[1-(4-fluorophenyl)-2-oxo-pyridine-3-carbonyl]amino]phenoxy]-N-(1-methyl-4-piperidyl)-1,7-naphthyridine-6-carboxamide] | 4 nM | 28 nM | 7 nM | 48 nM | 17 nM
2 | CC(C)n1cc(C(=O)Nc2ccc(Oc3ccnc4cnc(C(=O)NC5CCN(C)CC5)cc34)cc2)c(=O)n(-c2ccc(F)cc2)c1=O [Example 8.2, 4-[4-[[3-(4-fluorophenyl)-1-isopropyl-2,4-dioxo-pyrimidine-5-carbonyl]amino]phenoxy]-N-(1-methyl-4-piperidyl)-1,7-naphthyridine-6-carboxamide] | 10 nM | 10 nM | 3 nM | 120 nM | 30 nM
3 | CC(C)n1cc(C(=O)Nc2ccc(Oc3ccnc4cnc(C(=O)NC5CCN(C)CC5)cc34)cc2)c(=O)n(-c2ccc(F)cn2)c1=O [Example 9, 4-[4-[[3-(5-Fluoro-2-pyridyl)-1-isopropyl-2,4-dioxo-pyrimidine-5-carbonyl]amino]phenoxy]-N-(1-methyl-4-piperidyl)-1,7-naphthyridine-6-carboxamide] | 14 nM | 11 nM | 6 nM | 252 nM | 85 nM
4 | CC(C)n1cc(C(=O)Nc2ccc(Oc3ccnc4cnc(C(=O)NC5CCN(C)CC5)cc34)cc2)c(=O)n(-c2cc(F)cc(F)c2)c1=O [Example 9.1, 4-[4-[[3-(3,5-difluorophenyl)-1-isopropyl-2,4-dioxo-pyrimidine-5-carbonyl]amino]phenoxy]-N-(1-methyl-4-piperidyl)-1,7-naphthyridine-6-carboxamide] | 12 nM | 13 nM | 25 nM | > 2500 nM | > 2500 nM
5 | O=C(Nc1ccc(Oc2ccnc3cnc(N4CCNCC4)cc23)cn1)c1cccn(-c2ccc(F)cc2)c1=O [Example 10, 1-(4-fluorophenyl)-2-oxo-N-[5-[(6-piperazin-1-yl-1,7-naphthyridin-4-yl)oxy]-2-pyridyl]pyridine-3-carboxamide] | 5 nM | 29 nM | 28 nM | 148 nM | 24 nM
6 | CN1CCC(C(=O)Nc2cc3c(Oc4ccc(NC(=O)c5cccn(-c6ccc(F)cc6)c5=O)nc4)ccnc3cn2)C1 (centres unmarked) [Example 18, 1-(4-Fluorophenyl)-N-[5-[[6-[(1-methylpyrrolidine-3-carbonyl)amino]-1,7-naphthyridin-4-yl]oxy]-2-pyridyl]-2-oxo-pyridine-3-carboxamide] | 2 nM | 34 nM | – | 165 nM | 3 nM

More lines, main results first:

Row | IC50 [3] | IC50 [5] | SMILES | IC50 [1] | IC50 [2] | IC50 [4]
7 | 1 nM | 10 nM | CN1CCC(C(=O)Nc2cc3c(Oc4ccc(NC(=O)c5cccn(-c6ccc(F)cc6)c5=O)nc4)ccnc3cn2)CC1 [Example 18.1, 1-(4-fluorophenyl)-N-[5-[[6-[(1-methylpiperidine-4-carbonyl)amino]-1,7-naphthyridin-4-yl]oxy]-2-pyridyl]-2-oxo-pyridine-3-carboxamide] | – | 250 nM | 13 nM
8 | 3 nM | 12 nM | CC(C)n1cc(C(=O)Nc2ccc(Oc3ccnc4cnc(C5CCN(C)CC5)cc34)cn2)c(=O)c(-c2ccc(F)cc2)c1 [Example 23, 5-(4-fluorophenyl)-1-isopropyl-N-[5-[[6-(1-methyl-4-piperidyl)-1,7-naphthyridin-4-yl]oxy]-2-pyridyl]-4-oxo-pyridine-3-carboxamide] | – | 429 nM | 2 nM
9 | 14 nM | – | CC(C)n1cc(C(=O)Nc2ccc(Oc3ccnc4cnc(C(=O)N[C@H]5CCN(C)C5)cc34)cn2)c(=O)n(-c2ccc(F)cc2)c1=O [Example 27.4, 4-[[6-[[3-(4-fluorophenyl)-1-isopropyl-2,4-dioxo-pyrimidine-5-carbonyl]amino]-3-pyridyl]oxy]-N-[(3S)-1-methylpyrrolidin-3-yl]-1,7-naphthyridine-6-carboxamide] | 14 nM | 377 nM | 44 nM
